From patent publication US20230355674A1, “DONOR T-CELLS WITH KILL SWITCH” (CSL Behring LLC, priority 2020, published 2023)
“Also recorded” adds a separate entry of the source.

Legend:
HPRT protein [1] = assay: Western blot of HPRT protein in gRNA modified CEM cells; type: cell-based, human
Method: (§1) CEM T cell leukemia cells were electroporated (1600V, 10 ms pulse width, 3 pulses by using the Neon Transfection system) with ribonucleoprotein (RNP) complexes containing guide RNA (see Example 21) designed in-house and obtained from Integrated DNA Technologies (IDT), together with Cas9 and tracrRNA. Cells confirmed to be transfected with the gRNA via the use of the tracr RNA (24 hours post electroporation) were purified using fluorescence activated cells sorting (FACS) prior to culture for a further 72 hours, followed by assessment of cell survival when challenged with increasing concentrations of 6-thioguanine (6-TG) compared to wild type (unmodified) CEM cells.
Unmodified and modified CEM cells were also used for isolation of protein and detection of the HPRT protein using Western blot (FIG. 39, top panel). […] Actin protein detection (FIG. 39, bottom panel) was used as a protein loading control.
as §1, with “(gRNA; legend)” for “(see Example 21)”, “10 days in the presence” for “a further 72 hours, followed by assessment”, “10 uM 6-TG, replenished” for “cell survival when challenged”, “fresh 6-TG every 48-72 hours.” for “increasing concentrations of 6-thioguanine (6-TG) compared to wild type (unmodified) CEM cells.”
Following the selection period, protein was extracted from each cell and used for western blot-based detection of the HPRT protein. Detection of beta-actin was used as a protein loading control (Actin Antibody (ACTBD11B7): sc-81178. Santa Cruz).

primary human T cells [2] = assay: 6-TG resistance of gRNA modified primary human T cells (viability); type: cell-based; conditions: donors #9 and #10, 1 uM 6-TG, day 8 and day 13, vs unmodified
From the text: FIG. 44 illustrates a method of modifying primary T-cells in accordance with one embodiment of the present disclosure. FIGS. 45A-45C illustrate 6-TG dose responses seven days following the modification of the primary T-cells in accordance with the modification methods described herein. In particular, FIGS. 45A and 45B illustrate the targeting of Exon 3 (guide RNA 13) and Exon 8 (guide RNA 21). The references “#9” and “#10” denote T-cell number and UT control (electroporated without RNP). FIG. 45C illustrates unmodified cells from donor #9 and donor #10 tested with increasing concentrations of 6-TG (day 4). It was observed that the […] primary T-cells were very sensitive to low doses of 6-TG. ICE Scores are shown below.
(§2) Peripheral blood mononuclear cells (PBMC) were isolated from Australian Red Cross Blood donor samples (n=2) via density centrifugation. […] By day 7, the original mixed PBMC population was determined to be primarily CD3+ T cells (flow cytometry; data not shown).
The cells were then cultured for about 7 and about 12 days in the presence of 1 uM 6-TG, with 6-TG replenished every about 2 to about 3 days. At each of these time points, the cells were assessed for the proportion of viable cells compared to untreated (UT) controls.

primary human T cells [3] = assay: MTX dose response in 6-TG selected primary human T cells; type: cell-based; conditions: primary human T cells after 12 days 1 μM 6-TG, MTX dose range 2 days, thymidine 16 μM
Method: Primary human T cells modified using guide RNAs targeting the HPRT1 gene and subsequently placed under selection pressure for 12 days with 1 μM 6-TG, with 6-TG replenished every 2 to 3 days, were subjected to a dose range of MTX in the presence of thymidine 16 μM for 2 days and assessed for cell viability.

HPRT1 gene [4] = assay: ICE scoring (indel, knockout score) of gRNA editing in primary T cells; type: cell-based; conditions: primary human T cells
From the text: (§3) Indel Percentage—The editing efficiency (percentage of the pool with non-wild type sequence) as determined by comparing the edited trace to the control trace. In the ICE algorithm, potential editing outcomes are proposed and fitted to the observed data using linear regression.
(§4) Knockout Score—Represents the proportion of cells that have either a frameshift or 21+bp indel. This score is a useful measure for those who are interested in understanding how many of the contributing indels are likely to result in a functional Knockout (KO) of the targeted gene.
FIG. 44 illustrates a method of modifying primary T-cells in accordance with one embodiment of the present disclosure. FIGS. 45A-45C illustrate 6-TG dose responses seven days following the modification of the primary T-cells in accordance with the modification methods described herein. In particular, FIGS. 45A and 45B illustrate the targeting of Exon 3 (guide RNA 13) and Exon 8 (guide RNA 21). The references “#9” and “#10” denote T-cell number and UT control (electroporated without RNP). […]
as §2

Jurkat cells [5] = assay: HPRT knockout Jurkat cells, resistance to 6-TG (luminescence, ATP detection); type: cell-based; conditions: 6-TG tested up to 10 uM, vs wild type
Method: (§5) Jurkat cells were electroporated with a ribonucleoprotein (RNP) complex containing guide RNA (gRNA; GS-4; designated IDT-4) together with the Cas9 and tracrRNA. Cells which were confirmed to be transfected with the gRNA via tracr RNA were purified using fluorescence activated cells sorting (FACS) and subsequently cultured for 72 hours. Increasing concentrations of 6-thioguanine (6-TG) were then administered to the transduced cultured cells to assess resistance. Wild type (unmodified) Jurkat cells were used as a control.
Luminescence (ATP detection) was used to assess cell viability.

Jurkat cells [6] = assay: HPRT knockout Jurkat cells, MTX dose response; type: cell-based; conditions: MTX 0.00625 and 0.0125 μM, cultured for 5 days
Method: Jurkat cells (unmodified; WT) were cultured with increasing concentrations of methotrexate (MTX) to determine the MTX dosage window required to kill WT cells (see FIG. 28). A dose range of between 0.00625 and 0.025 μM MTX was selected for subsequent assessment of HPRT Knockout (IDT-4 modified) Jurkat cells.
Dose response of HPRT Knockout (IDT-4 modified) Jurkat cells to MTX was compared to unmodified Jurkat cells (WT) to determine sensitivity to MTX (see FIG. 29).

HPRT protein [7] = assay: Western blot of HPRT protein in Jurkat cells; type: cell-based, human; conditions: vs unmodified (WT)
Method: as §5
Unmodified (WT) and IDT-4 modified Jurkat cells were also analyzed for HPRT protein using Western blot (see FIG. 25). […] Actin protein detection (bottom panel) was used as a protein loading control.

[8] = tested on: CEM T cell leukemia cells; assay: 6-TG selection and 6-TG challenge of gRNA modified CEM cells (cell viability); type: cell-based; conditions: CEM, 10 μM 6-TG for 1 week, vs wild-type
Method: (§6) Cells confirmed to be transfected with the gRNA via the use of the tracr RNA (24 hours post electroporation) were purified using fluorescence activated cells sorting (FACS) prior to culture in 10 μM 6-TG for 1 week replenished with fresh 6-TG every 48-72 hours.
(§7) After 10 days in the presence of 10 uM 6-TG, replenished with fresh 6-TG every 48-72 hours, each cell line was challenged with increasing concentrations of 6-thioguanine (6-TG) and cell viability was compared to wild type (unmodified) CEM cells (see FIG. 40B).

HPRT1 gene [9] = assay: ICE scoring (indel, knockout score) of gRNA editing in CEM cells; type: cell-based, human
From the text: The top candidate guide RNAs from Example 21 were screen in Jurkat cell lines (n=1) and validated in CEM cell lines (n=2). For instance, Jurkat cells were electroporated with a ribonucleoprotein (RNP) complex containing guide RNA (e.g. an RNP including a guide RNA having any one of SEQ ID NOS: 40-49) together with the Cas9 and tracrRNA. The methodology and analysis was the same for both Jurkat cell lines and CEM cell lines (see also, FIG. 37). Following electroporation, cell viability was measured at different concentrations of 6-TG (see FIG. 36).
as §3, §4, §1

[10] = 6-TG selection and 6-TG challenge of gRNA modified CEM cells (cell viability); type: cell-based; conditions: human, wild type (unmodified) CEM T cell leukemia cells; wild type CEM, 6-TG at 40 uM
Method: as §6, §7

CEM cells = assay: Negative selection with MTX or MPA, transduced or transfected CEM cells; type: cell-based; conditions: 1 μM or 10 μM of MPA, day 0 to day 14
Method: Transduced or transfected CEM cells (such as those from Example 1) were cultured with or without MTX from day 0 to day 14. The medium was refreshed every 3 to 4 days. GFP was analyzed on flow machine and InDel % was analyzed by T7E1 assay.

[11] = after 10 days of 6-TG selection (10 uM)

gRNA 22: sgRNA guide and PAM GAAGTATTCATTATAGTCAAGGG, HPRT 1 target Exon 8 (listed as DNA, chemistry not given here)
HPRT protein (Western blot) (HPRT protein [1]; 72 hours post-electroporation, no 6-TG selection, listed as guide 22): undetectable levels of HPRT; also recorded: non-detectable | HPRT protein (Western blot) (HPRT protein [1]; [11]): remained undetectable

gRNA 13: sgRNA guide and PAM AGCCCCCCTTGAGCACACAGAGG, HPRT 1 target Exon 3 (listed as DNA, chemistry not given here)
proportion of viable cells under 6-TG (primary human T cells [2]): increased viability | sensitivity to MTX compared to wild-type non-modified cells (UT) (primary human T cells [3]): increased sensitivity to MTX | HPRT protein (Western blot) (HPRT protein [1]; 72 hours post-electroporation, no 6-TG selection, listed as guide 13): undetectable levels of HPRT; also recorded: non-detectable | HPRT protein (Western blot) (HPRT protein [1]; [11]): remained undetectable | knockout efficiency (ICE scoring) (HPRT1 gene [4]): about 43%

IDT-4: lead HPRT knockout guide RNA GGTTATGACCTTGATTTATT (listed as DNA, chemistry not given here)
cell viability with increasing doses of 6-TG (Jurkat cells [5]): resistance to increasing doses of 6-TG | sensitivity to MTX compared to wild type cells (Jurkat cells [6]): increased sensitivity to MTX | HPRT protein level (Western blot) (HPRT protein [7]): undetectable levels of HPRT

gRNA 17: sgRNA guide and PAM GTAGCCCTCTGTGTGCTCAAGGG, HPRT 1 target Exon 3 (listed as DNA, chemistry not given here)
HPRT protein (Western blot) (HPRT protein [1]; 72 hours post-electroporation, no 6-TG selection, listed as guide 17): undetectable levels of HPRT; also recorded: non-detectable | HPRT protein (Western blot) (HPRT protein [1]; [11]): remained undetectable

gRNA 19: sgRNA guide and PAM GTGCTTTGATGTAATCCAGCAGG, HPRT 1 target Exon 3 (listed as DNA, chemistry not given here)
HPRT protein (Western blot) (HPRT protein [1]; 72 hours post-electroporation, no 6-TG selection, listed as guide 19): reduced compared to wildtype; also recorded: detectable levels of HPRT protein | HPRT protein (Western blot) (HPRT protein [1]; [11]): limited to no detectable levels of HPRT | cell viability under 6-TG selection [8]: more variable viability | editing (ICE scoring), in words (HPRT1 gene [9]): zero editing

gRNA 15: sgRNA guide and PAM GATGTGATGAAGGAGATGGGAGG, HPRT 1 target Exon 3 (listed as DNA, chemistry not given here)
HPRT protein (Western blot) (HPRT protein [1]; [11]): limited to no detectable levels of HPRT | cell viability under 6-TG selection [8]: more variable viability | editing (ICE scoring), in words (HPRT1 gene [9]): efficient editing

Nc1nc2nc[nH]c2c(=S)[nH]1 [6-TG, 6-thioguanine, reference compound]
viability at 40 µM [10]: ~10%

gRNA 18: sgRNA guide and PAM TTATGCTGAGGATTTGGAAAGGG, HPRT 1 target Exon 2 (listed as DNA, chemistry not given here)
HPRT protein (Western blot) (HPRT protein [1]; 72 hours post-electroporation, no 6-TG selection, listed as guide 18): reduced compared to wildtype; also recorded: detectable levels of HPRT protein | HPRT protein (Western blot) (HPRT protein [1]; [11]): limited to no detectable levels of HPRT | cell viability under 6-TG selection [8]: more variable viability | editing (ICE scoring), in words (HPRT1 gene [9]): efficient editing

gRNA 12: sgRNA guide and PAM GCCCCCCTTGAGCACACAGAGGG, HPRT 1 target Exon 4 (listed as DNA, chemistry not given here)
HPRT protein (Western blot) (HPRT protein [1]; 72 hours post-electroporation, no 6-TG selection, listed as guide 12): undetectable levels of HPRT; also recorded: non-detectable | HPRT protein (Western blot) (HPRT protein [1]; [11]): remained undetectable

COc1c(C)c2c(c(O)c1C/C=C(\C)CCC(=O)O)C(=O)OC2 [MPA, Mycophenolic acid]
HPRT knockout population of CEM cells (CEM cells): eliminated at a faster pace | GFP population of transduced (HPRT knockdown) cells (CEM cells; CEM cells): decreased
